Like-named read-outs stand apart in the source and are kept apart here.
What was measured:
[1] = test system: G361 malignant melanoma cells; experiment: In vitro cytotoxicity testing (MTT assay), G361; type: cell-based, human; settings: 24 h drug exposure, no recovery, read-out: IC50±SD, G361
Experimental: (§1) A2780 ovarian carcinoma, A2780R cisplatin-resistant ovarian carcinoma, HOS osteosarcoma, G361 malignant melanoma, MCF7 breast carcinoma, A549 lung carcinoma, HeLa cervix carcinoma, 22Rv1 prostate carcinoma and Caco-2 colorectal carcinoma human cancer cell lines were purchased from the European Collection of Cell Cultures (ECACC), while the human non-cancerous hepatocytes (Hep) were supplied by Biopredic Intl. The cell lines were cultured, according to the suppliers`instructions, in RPMI-1640 medium supplemented with 10% of fetal calf serum, 1% of 2 mM glutamine, and 1% penicillin/streptomycin. All cell lines were grown as adherent monolayers at 37°C and 5% CO2 in a humidified atmosphere.
(§2) The cells were seeded to 96-well culture plates, pre-incubated in drug-free media at 37°C for 24 h and treated typically with the 0.01–50.0 μM solutions, prepared from the stock solutions by dilution with medium, for 24 h at 37°C. […] In parallel with compounds 1–8 and the reference drugs, the cells were also treated with vehicle (0.1% DMF in medium; negative control) and Triton X-100 (1%; positive control) to assess the minimal and maximal cell damage, respectively. The MTT assay was used to determine the cell viability; MTT = 3-(4,5-dimethylthiazol-2-yl)-2,5-diphenyltetrazolium bromide. A concentration of the formed dye was evaluated spectrophotometrically at 540 nm (TECAN, Schoeller Instruments LLC).
(§3) The data were expressed as the percentage of viability, where 100% and 0% represents the treatments with negative and positive controls, respectively. The data from the cancer cells were acquired from three independent experiments (conducted in triplicate) using cells from different passages. The resulting IC50 values (μM) were calculated from viability curves and the results are presented as arithmetic mean±SD.

[2] = test system: A2780R cisplatin-resistant ovarian carcinoma cells; experiment: In vitro cytotoxicity testing (MTT assay), A2780R; type: cell-based, human; settings: for resistance factor (RF), IC50(A2780R)/IC50(A2780): 24 h IC50 values; for IC50: 24 h drug exposure, no recovery, MTT, read-out: IC50±SD, A2780R
Experimental: (§4) All cell lines were grown as adherent monolayers at 37°C and 5% CO2 in a humidified atmosphere.
(§5) The MTT assay was used to determine the cell viability; MTT = 3-(4,5-dimethylthiazol-2-yl)-2,5-diphenyltetrazolium bromide. A concentration of the formed dye was evaluated spectrophotometrically at 540 nm (TECAN, Schoeller Instruments LLC).
as §3

[3] = test system: MCF7 breast carcinoma cells; experiment: In vitro cytotoxicity testing (MTT assay), MCF7; type: cell-based, human; settings: 24 h drug exposure, no recovery, read-out: IC50±SD, MCF7
Experimental: as §1, §2, §3

[4] = test system: human non-cancerous hepatocytes (Hep); experiment: In vitro cytotoxicity testing (MTT assay), hepatocytes; type: cell-based; settings: 24 h drug exposure, no recovery
Experimental: as §1, §2, §3

[5] = test system: 22Rv1 prostate carcinoma cells; experiment: In vitro cytotoxicity testing (MTT assay), 22Rv1; type: cell-based, human; settings: 24 h drug exposure, no recovery, read-out: IC50±SD, 22Rv1
Experimental: as §1, §2, §3

[6] = test system: A2780 ovarian carcinoma cells; experiment: In vitro cytotoxicity testing (MTT assay), A2780; type: cell-based, human
Experimental: as §4, §5, §3

[7] = test system: Caco-2 colorectal carcinoma cells; experiment: In vitro cytotoxicity testing (MTT assay), Caco-2; type: cell-based, human; settings: 24 h drug exposure, no recovery, MTT; read-out: IC50±SD, Caco-2
Experimental: as §4, §5, §3

[8] = test system: A549 lung carcinoma cells; experiment: In vitro cytotoxicity testing (MTT assay), A549; type: cell-based, human; settings: 24 h drug exposure, no recovery, read-out: IC50±SD, A549
Experimental: as §1, §2, §3

[9] = test system: HeLa cervix carcinoma cells; experiment: In vitro cytotoxicity testing (MTT assay), HeLa; type: cell-based, human; settings: 24 h drug exposure, no recovery, read-out: IC50±SD, HeLa
Experimental: as §1, §2, §3

HOS osteosarcoma cells = experiment: In vitro cytotoxicity testing (MTT assay), HOS; type: cell-based, human; settings: for IC50: 24 h drug exposure, no recovery, MTT, read-out: IC50±SD, HOS
Experimental: as §1, §2, §3

A2780 cells = experiment: Cellular accumulation of platinum (ICP-MS); type: cell-based, human; settings: 24 h treatment at IC50 concentration
Experimental: The A2780 cells were seeded in 6-well culture plates (1×10^6 cells per well) and incubated overnight (37°C and 5% CO2 in a humidified incubator). […] The cells were washed with PBS (2 × 2 mL) after 24 h treatment, harvested by trypsin treatment, collected and centrifuged in PBS. The supernatants were discarded after centrifugation and pellets were digested in 500 μL of nitric acid (3 min at 150°C) using a microwave system Monowave300 (Anton Paar). Solutions were diluted with 4.5 mL of water and the platinum content was determined by ICP-MS. The obtained values were corrected for adsorption effects. The experiments were conducted in triplicate and the results are presented as arithmetic mean±SD.

[10] = Hydrophobicity studies (logP determination), octanol/water, ICP-MS; type: physicochemical; settings: octanol/water (0.2 M KI)
Experimental: Complexes 4 and 6 (1 mmol) were ultrasonicated for 15 min in 10 mL of OSW, centrifuged and supernatants were collected. Aliquots (5 mL) of the obtained OSW solutions of complexes 4 and 6 were added to WSO (5 mL) and shaken for 2 h at ambient temperature. After that, the mixtures were centrifuged and aqueous layer was separated carefully. The platinum concentration was determined from OSW aliquots taken before ([Pt]OSWb) and after ([Pt]OSWa) partition by ICP-MS (ICP-MS spectrometer 7700x, Agilent) with the obtained values corrected for the adsorption effects. logP = log([Pt]WSO/[Pt]OSWa) equation was used for the partition coefficients calculation; [Pt]WSO = [Pt]OSWb−[Pt]OSWa. The experiments were conducted in triplicate.

[11] = test system: caspase 3 (Cas-3), active form p17; experiment: Ex vivo Western blot of tumour tissues, cleaved caspase 3; type: in vivo, mice; settings: pooled tumour samples
Experimental: The expression of caspase 3, MCL-1, p53, and β-actin as loading control were evaluated by Western blot analysis and immunodetection. Lysates were mixed with a denaturing loading dye [250 mM Tris-HCl pH 6.8, 5% (v/v) β-mercaptoethanol, 10% (w/v) sodium dodecyl sulfate, 30% (v/v) glycerol, 0.04% (w/v) bromophenol blue], heated for 5 min at 70°C. […] The final protein amount was 50 μg per well. After protein separation in the gel, they were transferred on the Immun-Blot polyvinylidene difluoride membrane 0.2 μm (Bio-Rad, USA). Then, the membrane was blocked by 5% (w/v) BSA in TBST [10 mM Tris-HCl pH 7.5, 150 mM NaCl, 0.1% (v/v) Tween-20]. […] HRP was detected by Clarity Western ECL Substrate (Bio-Rad, USA) using chemiluminescent documentation system Syngene PXi-4 (UK).

[12] = test system: L1210 mouse lymphocytic leukaemia cells; experiment: In vivo antitumour activity testing, L1210 lymphocytic leukaemia model; set-up: species or system mice; settings: dose equimolar to cisplatin 2 mg/kg, i.p.
Experimental: The experimental animals used for in vivo antitumour testing were female DBA/2 SPF mice obtained from Charles Rivers Laboratories. The animals were housed in the Sealsafe NEXT—IVC Blue Line Housing System (Tecniplast, Italy) to ensure the best possible experimental conditions and eliminate the risk of possible intergroup cross-contamination, and kept in Plexiglas cages at constant temperature (22±1°C) and relative humidity of 55±5% for one-week adaptation period before the start of the experiment. All experimental procedures were performed according to the National Institute of Health (NIH) Guide for the Care and Use of Laboratory Animals. The protocol was approved by the Expert Committee on the Protection of Animals Against Cruelty at the University of Veterinary and Pharmaceutical Sciences Brno (Permit Number: 71/2013). The number of pharmacological interventions was limited to the necessary minimum in order to minimize the suffering of animals, which were observed regularly for the symptoms connected with the tumour progression. […] No animals had to be sacrificed due to the above mentioned criteria of humane treatment and no post-application deaths within the 2 hours after the application were observed during the experiment. […] The animal tissues for the ex vivo experiments and histological evaluations were taken post mortem, in case of surviving animals immediately after they were sacrificed by the lethal dose of carbon dioxide inhalation, immediately followed by the cervical dislocation.
The animals were monitored several times a day for the signs of tumour progression and distress development.

MCL-1L (37 kDa) = experiment: Ex vivo Western blot of tumour tissues, MCL-1L; type: in vivo, mice; settings: pooled tumour samples
Experimental: (§6) Frozen tumour samples were homogenized by a bench blender IKA DI25 (IKA-Werke, Germany) in the presence of a lysis buffer [cOmplete Protease Inhibitor Cocktail (Roche, Germany), 50 mM Tris-HCl pH 7.5, 1 mM EGTA, 1 mM EDTA, 1 mM sodium orthovanadate, 50 mM sodium fluoride, 5 mM sodium pyrophosphate, 270 mM sucrose, 0.5% (v/v) Triton X-100]. Subsequently, the blended samples were centrifuged at 9.000 g at 4°C for 15 min. The supernatants were collected and the protein concentration was measured by the Brandford’s method using the Brandford reagent (Amresco, USA) according to the manufacturer’s manual. The measured samples were stored at -80°C for the following experiments.
(§7) The expression of caspase 3, MCL-1, p53, and β-actin as loading control were evaluated by Western blot analysis and immunodetection. Lysates were mixed with a denaturing loading dye [250 mM Tris-HCl pH 6.8, 5% (v/v) β-mercaptoethanol, 10% (w/v) sodium dodecyl sulfate, 30% (v/v) glycerol, 0.04% (w/v) bromophenol blue], heated for 5 min at 70°C. To eliminate intra-species variability, and to obtain the same amount of proteins from all experimental groups, all samples from one group of animals were pooled together and loaded onto a 15% polyacrylamide denaturing gel. The final protein amount was 50 μg per well. After protein separation in the gel, they were transferred on the Immun-Blot polyvinylidene difluoride membrane 0.2 μm (Bio-Rad, USA). Then, the membrane was blocked by 5% (w/v) BSA in TBST [10 mM Tris-HCl pH 7.5, 150 mM NaCl, 0.1% (v/v) Tween-20]. […] HRP was detected by Clarity Western ECL Substrate (Bio-Rad, USA) using chemiluminescent documentation system Syngene PXi-4 (UK).

p53 = experiment: Ex vivo Western blot of tumour tissues, p53; type: in vivo, mice; settings: pooled tumour samples
Experimental: as §6, §7

[13] = test system: spleen, renal tissue and tumour tissues of L1210 leukaemia-bearing mice; experiment: Histological observations (light microscopy, semi-quantitative); settings: relative scale 0 to 4
Text: Randomly selected paraffin block preparations were stained by standard hematoxylin and eosin stain for light microscopic evaluation. Due to high cellularity, the semi-quantitative method was used for the evaluation of necrosis in well-circumcised and diffuse tumour samples and PMN cells infiltration in normal tissues as an indirect sign of toxicity to healthy tissues. The evaluation of necrotic processes and infiltration by PMN cells was semi-quantitative, based on the percentage of necrotic areas and/or infiltrated area in the view-field of at least three different samples.

[14] = test system: cisplatin-sensitive HCT116 colon cancer cell line; set-up: method as in PMID 26226326; settings: cited from earlier work
[15] = test system: cisplatin-resistant HCT116 colon cancer cell line; set-up: method as in PMID 26226326; settings: cited from earlier work
[16] = 24 h drug exposure, no recovery, MTT, read-out: IC50±SD, A2780

SMILES	IC50 [1] [µM]	resistance factor (RF), IC50(A2780R)/IC50(A2780) [2]	IC50 [2] [µM]	IC50 [3] [µM]	IC50 [4] [µM]	IC50 [5] [µM]	IC50 [6, 16] [µM]	IC50 [7] [µM]	IC50 [8] [µM]	IC50 [9] [µM]	IC50 (HOS osteosarcoma cells) [µM]	further results
[I][Pt][I].c1cnc2[nH]ccc2c1.c1cnc2[nH]ccc2c1 [Complex 1, cis-[Pt(aza)2I2]]	2.9 ± 0.6	0.94	3.3 ± 0.3	1.7 ± 0.8	3.9	4.6 ± 1.2	3.5 ± 0.7	3.3 ± 0.2	12.3 ± 1.1	7 ± 0.6	0.8 ± 0.4	
Clc1c[nH]c2ncccc12.Clc1c[nH]c2ncccc12.[I][Pt][I] [Complex 2, cis-[Pt(3Claza)2I2]]	2.3 ± 1	0.89	3.3 ± 0.5	1.5 ± 0.4	5.9	4.8 ± 2.4	3.7 ± 0.4	3.1 ± 0.2	6.4 ± 1.4	4.8 ± 0.4	1.3 ± 0.8	
Brc1c[nH]c2ncccc12.Brc1c[nH]c2ncccc12.[I][Pt][I] [Complex 3, cis-[Pt(3Braza)2I2]]	3.1 ± 0.2	1.14	3.2 ± 0.2	1.9 ± 0.5	3.9	4.2 ± 1.2	2.8 ± 0.3	3 ± 0.1	8.8 ± 2.2	4.7 ± 0.8	2.2 ± 1.2	
Ic1c[nH]c2c1ccc[n+]2[Pt-2]([I])([I])[n+]1cccc2c(I)c[nH]c21 [Complex 4, cis-[PtI2(3Iaza)2]]	1.6 ± 0.7	1.13	2.6 ± 0.8	1.8 ± 0.3	11.8	4.5 ± 1.6	2.3 ± 1.1	3.3 ± 0.1	9.8 ± 1.3	6.2 ± 0.7	2.8 ± 1	cellular accumulation (A2780 cells): 354±63 pmol Pt/10^6 A2780 cells; logP [10]: 0.41
Clc1ccnc2[nH]ccc12.Clc1ccnc2[nH]ccc12.[I][Pt][I] [Complex 5, cis-[Pt(4Claza)2I2]]	3.2 ± 0.2	1.10	3.4 ± 0.2	1.5 ± 0.5	4.2	4.2 ± 0.1	3.1 ± 0.1	2.4 ± 0.7	4.7 ± 0.3	3.8 ± 0.3	0.5 ± 0.2	level of active form of Cas-3 in tumour tissue [11]: has not been observed; tolerability / signs of toxicity (e.g. weight loss) [12]: well-tolerated; percentage of mean survival time T/C [12]: 100%; mean survival time ± SD ([12]; 10 days after implantation, control 17.4±1.6 days): 17.3 ± 2.3 days; MCL-1L level in tumour tissue (MCL-1L (37 kDa)): negligible effect; IC50 ([6]; 6 h exposure, read-out: IC50, A2780, time-dependent cytotoxicity): 11 ± 2.9 µM; p53 level in tumour tissue (p53): did not affect; Areas of necrosis in tumour tissues [13]: 2 (2 = up to 50%); Infiltration of renal tissues (PMN cells) [13]: 1 (1 = up to 25%); Infiltration of spleen (PMN cells) [13]: 3 (3 = up to 75%); times more potent than cisplatin (HOS osteosarcoma cells; HOS cell line): ≤ 47 times
Brc1cnc2[nH]ccc2c1.Brc1cnc2[nH]ccc2c1.[I-].[I-].[Pt+2] [Complex 7, cis-[Pt(5Braza)2I2]]	3.4 ± 0.3	1.03	3.5 ± 0.5	1.6 ± 0.8	3.8	5.1 ± 0.8	3.4 ± 0.2	3.6 ± 0.2	7.3 ± 1.6	5.4 ± 1.2	1.4 ± 1.1	
N.N.[I-].[I-].[Pt+2] [cis-[PtI2(NH3)2]]												IC50 [14]: 13.4 µM; IC50 [15]: 4.2 µM
